Here are results for eleven molecules from ChEMBL document CHEMBL1124224, “Synthetic polyamine analogues as antineoplastics” (J Med Chem, 1988).

Where “and” joins values, the source holds several entries; their conditions need not be identical. Identical values can stand only once.

Assay [1] is described as follows: Inhibitory concentration against growth of cultured […] cells at 144 hrs. Type of assay: functional. The following applies: Homo sapiens.
Assay [2] in a line: Inhibitory concentration against growth of cultured […] cells at 72 hrs. Format: functional. Particulars: Homo sapiens.
The test system of assay [3] is HL-60. Description: Inhibitory concentration against growth of cultured HL-60 cells at 144 hrs. Type of assay: functional, cell-based. The following applies: Homo sapiens, HL-60, 144 h.
Assay [4] concerns HL-60. Nature of the assay: Inhibitory concentration against growth of cultured HL-60 cells at 72 hrs. Type of assay: functional, cell-based. Particulars: Homo sapiens, HL-60, 72 h.
The subject of assay [5] is L1210. Nature of the assay: Percent of clonogenic L1210 cells to relative to control was determined after the treatment with the compound of 10 uM was for 24 hr. Type of assay: functional, Mus musculus.
Assay [6] relates to L1210. Nature of the assay: Percent of clonogenic L1210 cells to relative to control was determined after the treatment with the compound of 10 uM was for 48 hr. Format: functional, Mus musculus.
In assay [7] the test system is L1210. Nature of the assay: Percent of clonogenic L1210 cells to relative to control was determined after the treatment with the compound of 10 uM was for 72 hr. Type of assay: functional, Mus musculus.
For assay [8], the system named is L1210. Nature of the assay: Percent of clonogenic L1210 cells to relative to control was determined after the treatment with the compound of 10 uM was for 96h. Format: functional, Mus musculus.
In assay [9] the test system is L1210. Nature of the assay: Tested for inhibition of L1210 cell growth by the compound after 48 hr. Type of assay: functional, cell-based. Particulars: Mus musculus, L1210, 48 h.
The test system of assay [10] is L1210. Description: Tested for inhibition of L1210 cell growth by the compound after 96 hr. Format: functional, cell-based. Particulars: Mus musculus, L1210, 96 h.
The test system of assay [11] is Mus musculus. Description: % increase in life span in L1210 leukemic mice was calculated at 17.5 mg/kg by ip administration. The following applies: route intraperitoneal. Format: functional.
Assay [12] deals with Mus musculus. Description: % increase in life span in L1210 leukemic mice was calculated at 20 mg/kg by ip administration. Type of assay: functional. The following applies: route intraperitoneal.
Assay [13] relates to Mus musculus. Nature of the assay: % increase in life span in mice was calculated at 5 mg/kg by ip administration. Format: functional. The following applies: route intraperitoneal.
Assay [14] has as its system Mus musculus. Description: % increase in life span in L1210 leukemic mice was calculated at 15 mg/kg by ip administration. Particulars: route intraperitoneal. Type of assay: functional.
The species entered for assay [15] is Mus musculus. Nature of the assay: Ratio of survivors to the total mice in the test group; 0/13. Format: functional.
For assay [16], the species on record is Mus musculus. Description: Mean survival of mice with L1210 leukemia was evaluated on day 60 with no treatment. Type of assay: functional.
Assay [17] has as its system Mus musculus. Nature of the assay: Mean survival of L1210 leukemic mice was evaluated on day 60 at 15 mg/kg by ip administration (schedule: Q8H,1-6days). Format: functional. The following applies: route intraperitoneal.
Assay [18] deals with Mus musculus. Description: Mean survival of mice with 10e 5 L1210 cells was evaluated on day 60 at 15 mg/kg by ip administration (schedule: Q12H,1-6days). Particulars: route intraperitoneal. Format: functional.
Assay [19] has as its system Mus musculus. Description: Mean survival of mice with L1210 leukemia on day 60 at 5 mg/kg by ip administration (schedule: Q8H,1-6days). Format: functional. The following applies: route intraperitoneal.
For assay [20], the system named is Mus musculus. Description: Mean survival of mice with L1210 leukemia was evaluated on day 60 at 10 mg/kg by ip administration (schedule: Q8H,1-6days). Type of assay: functional. Particulars: route intraperitoneal.
Assay [21] relates to Mus musculus. Nature of the assay: Mean survival of mice with L1210 leukemia was evaluated on day 60 at 17.5 mg/kg by ip administration (schedule: Q8H,1-6days). Type of assay: functional. The following applies: route intraperitoneal.
For assay [22], the system named is Mus musculus. Description: Mean survival of mice with L1210 leukemia was evaluated on day 60 at 20 mg/kg by ip administration (schedule: Q8H,1-3days). Format: functional. Particulars: route intraperitoneal.
Assay [23] relates to Mus musculus. Nature of the assay: Mean survival of mice with L1210 leukemia was evaluated on day 60 at 20 mg/kg by ip administration (schedule: Q8H,1-4days). Format: functional. Particulars: route intraperitoneal.
In assay [24] the test system is Mus musculus. Nature of the assay: % increase in life span in L1210 leukemic mice was calculated at 10 mg/kg by ip administration. Type of assay: functional. Particulars: route intraperitoneal.
Assay [25] relates to Mus musculus. Nature of the assay: % increase in life span in mice was calculated at 15 mg/kg by ip administration. Format: functional. Particulars: route intraperitoneal.
The nature of assay [26]: Ratio of survivors to the total mice in the test group; 0/10. Format: functional.
Assay [27] in a line: Ratio of survivors to the total mice in the test group; 0/4. Type of assay: functional.
Assay [28] can be described thus: Ratio of survivors to the total mice in the test group; 0/47. Format: functional.
Assay [29] can be described thus: Ratio of survivors to the total mice in the test group; 0/8. Format: functional.
Assay [30] can be described thus: Ratio of survivors to the total mice in the test group; 4/8. Type of assay: functional.
The nature of assay [31]: Ratio of survivors to the total mice in the test group; 9/16. Type of assay: functional.
Assay [32] in a line: Ratio of survivors to the total mice in the test group; 0/6. Type of assay: functional.
The test system of assay [33] is L1210. Nature of the assay: Tested for inhibition of L1210 cell growth by the compound at a dose of 50 uM and after 48 hr; No inhibition at 50 uM. Type of assay: functional, cell-based. The following applies: Mus musculus.
For assay [34], the system named is L1210. Description: Tested for inhibition of L1210 cell growth by the compound at a dose of 50 uM and after 96 hr; No inhibition at 50 uM. Type of assay: functional, cell-based. The following applies: Mus musculus.
Assay [35] relates to L1210. Nature of the assay: Tested for inhibition of L1210 cell growth by the compound at a dose of 30 uM and after 48 hr. Particulars: Mus musculus, L1210, 48 h. Format: functional.
The test system of assay [36] is L1210. Description: Tested for inhibition of L1210 cell growth by the compound at a dose of 30 uM and after 96 hr. Particulars: Mus musculus, L1210, 96 h. Type of assay: functional.
Assay [37] deals with L1210. Nature of the assay: Tested for inhibition of L1210 cell growth by the compound at a dose of 25 uM and after 48 hr; No inhibition at 25 uM. Type of assay: functional, cell-based. Particulars: Mus musculus.
Assay [38] has as its system L1210. Description: Tested for inhibition of L1210 cell growth by the compound at a dose of 25 uM and after 96 hr; No inhibition at 25 uM. Particulars: Mus musculus. Format: functional, cell-based.
Assay [39] has as its system L1210. Description: Tested for inhibition of L1210 cell growth by the compound at a dose of >12.5 uM and after 48 hr. Particulars: Mus musculus.
For assay [40], the system named is L1210. Description: Tested for inhibition of L1210 cell growth by the compound at a dose of >12.5 uM and after 96 hr. The following applies: Mus musculus.
Assay [41] relates to L1210. Nature of the assay: Tested for inhibition of L1210 cell growth by the compound at a dose of 50 uM and after 48 hr. Type of assay: functional. Particulars: Mus musculus, L1210, 48 h.
Assay [42] relates to L1210. Nature of the assay: Tested for L1210 cell growth as percent of control by the compound at a dose of 100 uM and after 48 hr. The following applies: Mus musculus, L1210, 48 h.

Turning to `CCNCCCNCCCCNCCCNCC` [BIS(ETHYL)SPERMINE], the IC50 in assay [1] was 0.5 µM; in [2] it was more than 40 µM; in the assay on HL-60 [3], 0.3 µM; with HL-60 [4], 10 µM; with L1210 [9], 10 µM; in the assay with L1210 [10], 0.1 µM. For the same molecule, the Clones in the assay with L1210 [5] came out at 100%; in the assay on L1210 [6], 75%; with L1210 [7], 21%; in the assay with L1210 [8], 2%. In addition, the ILS at 17.5 mg/kg in the assay on Mus musculus [11] is 439%. Besides, the ILS with Mus musculus [12] was 57% and 103%. In addition, in the assay with Mus musculus [13], the increase in life span (ILS) at 5 mg/kg is 25%. Moreover, the ILS at 15 mg/kg in the assay with Mus musculus [14] is 55%; with Mus musculus [25], 376%. The S/T in the assay listed under Mus musculus [15] was determined as 0; in assay [26] it was 0; in [27], 0; in assay [28], 0; in assay [29] it was 0; in [30], 0.5. The S/T is 0.562 in assay [31] and 0 in assay [32]. Also, the Mean survival in the assay filed under Mus musculus [16] was 9.7 days and 8.9 days; in the assay with Mus musculus [17] it was 46.6 days; in the assay with Mus musculus [18], 14.9 days; in the assay on Mus musculus [19], 12.3 days; in the assay on Mus musculus [20], 35.3 days; with Mus musculus [21], 52.3 days. Besides, the Mean survival in the assay on Mus musculus [22] is 14 days; in the assay on Mus musculus [23], 18.1 days. Moreover, the ILS at 10 mg/kg with Mus musculus [24] was 264%.

For `CCNCCCN1CCN(CCCNCC)CC1`, the inhibition entry with L1210 [33] and with L1210 [34] was “No inhibition” each time.

Regarding `CCCNCCCCNCCCNCCC`, the figures for the inhibition at 30 µM with L1210 [35] and with L1210 [36] were 88% and 83%, respectively.

For `CCN(CCCN)CCCCN(CC)CCCN`, the inhibition entry in the assay on L1210 [37] and in the assay on L1210 [38] was “No inhibition” each time.

As for `CCNCCCCCCCCCCCCNCC`, the inhibition result in the assay with L1210 [39] and in the assay with L1210 [40] was “No inhibition” each time.

Regarding `CCNCCCNCCCNCCCCNCCCNCCCNCC`, the IC50 was found to be 50 µM with L1210 [9] and 0.5 µM with L1210 [10].

Regarding `CCNCCCN(CC)CCCCN(CC)CCCNCC`, the IC50 was 100 µM in the assay with L1210 [9] and 3 µM with L1210 [10].

As for `CCNCCCCNCCCNCC`, the inhibition at 30 µM in the assay on L1210 [35] was 61%. The IC50 in the assay on L1210 [10] came to 10 µM.

`CCN(CC)CCCNCCCCNCCCN(CC)CC` registered an inhibition at 50 µM in the assay with L1210 [41] of 80%. Moreover, inhibition in the assay with L1210 [10] was half-maximal at 5 µM (IC50).

On to `CNCCCNCCCCNCCCNC`, for which half-maximal inhibition in the assay with L1210 [10] (IC50) was put at 0.75 µM. Besides, the control growth at 100 µM with L1210 [42] was 60%.

For `CCCNCCCNCCCCNCCCNCCC`, the IC50 in the assay with L1210 [9] stood at 3 µM; with L1210 [10] it was 0.2 µM.
